Results: patent US11230545B2, “Heterocyclic compound” (Takeda Pharmaceutical Company Limited, priority 2018, dated 2022)

Tests used:
recombinant human MALT1 = molecular target: T1, recombinant human MALT1 (Homo sapiens, UniProt Q9UDY8); assay: Measurement of MALT1 enzyme inhibitory activity; assay type: biochemical; details: read-out: MALT1 enzyme inhibition rate (%) at 3 μM compound
T1 construct: to form a human MALT1 (340-789aa) dimer; His tag (from pET28a, N-terminal) (N); yeast GCN4 leucine zipper (251-281aa), fusion partner for dimerisation (N); translates to GSGSGS), between GCN4 zipper and MALT1 (N); His tag (C-terminal) (C); made in house; host or cells: E. coli BL21 (DE3)
Method: On the human MALT1 gene, PCR was carried out using GC-030-[…] (pENTR221/MALT1, GeneCopoeia) as a template with primers having BamH I restriction enzyme at the N-terminal and Not I restriction enzyme at the C-terminal to form a human MALT1 (340-789aa) dimer. […] Both of the obtained fragments were treated with the restriction enzymes, and inserted between Nde I and Not I of a pET28a (Novagen) vector to yield a recombinant human MALT1 protein expression vector pET28a/His-LZ-hMALT1v1 (340-789)-His. The recombinant human MALT1 protein was prepared by transforming the expression plasmid prepared as above with ECOS Competent E. coli BL21 (DE3) (Nippon Gene Co., Ltd.). Escherichia coli obtained by transformation was inoculated into 300 mL of LB medium (1% tryptone, 0.5% yeast extract, 0.5% sodium chloride, 0.01% ampicillin) and cultured at 30° C. for 16 hours. […] Furthermore, culturing was carried out for 16 hours to induce expression of human MALT1 protein. After completion of the culture, the culture solution was centrifuged at 5,000 rpm for 10 minutes. […] This crushed liquid was centrifuged (15,300×G, 30 min, TOMY MX-301), and the obtained supernatant was passed through and adsorbed to a Ni-NTA Superflow (QIAGEN) column previously equilibrated with 50 mM Tris-HCl pH 8.0, 300 mM NaCl, 5 mM DTT and 10% glycerol, followed by elution in a buffer containing 50 mM Tris-HCl pH 8.0, 300 mM NaCl, 5 mM DTT, 10% glycerol and 250 mM imidazole. […] The prepared protein was stored at -30° C., and the protein concentration was measured with a BCA Protein Assay Kit (PIERCE) using BSA as a standard. […] Subsequently, 2 μL of a purified recombinant human MALT1 enzyme solution was added, followed by incubation for 60 minutes at room temperature. To the mixture were added 2 μL of a substrate solution (75 μM Ac-LRSR-AFC (SM Biochemicals), 20 mM HEPES (Dojin Laboratories), 10 mM KCl (Wako Pure Chemical Industries, Ltd.), 1.5 mM MgCl2 (Sigma-Aldrich), 1 mM EDTA (pH 8.0) (Nippon Gene Co., Ltd.), 0.01% Triton X-100 (Sigma-Aldrich) and 1 mM DTT (Wako Pure Chemical Industries, Ltd.), followed by incubation for 60 minutes at room temperature. The fluorescence values of excitation 400 nm and emission 485 nm immediately after substrate addition and after enzymatic reaction were measured with a plate reader Envision (PerkinElmer), and the fluorescence values increased by enzymatic reaction were used for calculation of the inhibition rate (%).

OCI-Ly3 cells = assay: Measurement of growth inhibitory activity using OCI-Ly3 cells; assay type: cell-based; details: Homo sapiens, 144 h, 3 μm compound, 6 days, read-out: Cell growth inhibition rate (%) at 3 μm compound
Method: OCI-Ly3 cells were seeded in a cell culture medium IMDM (Fujifilm Wako Pure Chemical Corporation) containing 20% FCS (fetal calf serum, Thermo Fisher Scientific) and monothioglycerol (Fujifilm Wako Pure Chemical Corporation) so as to be at 1.25×10^3 cells/well on a 96-well plate. Cell Titer-Glo solution (Promega) was added to cells to which the test compound had not been added, followed by stirring at room temperature for 15 minutes. Subsequently, the luminescence value was measured with Envision (PerkinElmer) on the day of seeding. Cells to which the test compound dissolved in dimethyl sulfoxide (Fujifilm Wako Pure Chemical Corporation) had been added were allowed to stand in a CO2 incubator (37° C.) for 6 days. Subsequently, the luminescence value was measured in the same manner. The inhibition rate (%) of the test compound on OCI-Ly3 cell growth was calculated by the following formula. Cell growth inhibition rate (%)=(1−(Luminescent value on day 6 of test compound treatment−Luminescent value before test compound treatment)/(Luminescent value on day 6 without compound addition−Luminescent value before compound treatment))×100

T1 sequence (Q9UDY8 340-789): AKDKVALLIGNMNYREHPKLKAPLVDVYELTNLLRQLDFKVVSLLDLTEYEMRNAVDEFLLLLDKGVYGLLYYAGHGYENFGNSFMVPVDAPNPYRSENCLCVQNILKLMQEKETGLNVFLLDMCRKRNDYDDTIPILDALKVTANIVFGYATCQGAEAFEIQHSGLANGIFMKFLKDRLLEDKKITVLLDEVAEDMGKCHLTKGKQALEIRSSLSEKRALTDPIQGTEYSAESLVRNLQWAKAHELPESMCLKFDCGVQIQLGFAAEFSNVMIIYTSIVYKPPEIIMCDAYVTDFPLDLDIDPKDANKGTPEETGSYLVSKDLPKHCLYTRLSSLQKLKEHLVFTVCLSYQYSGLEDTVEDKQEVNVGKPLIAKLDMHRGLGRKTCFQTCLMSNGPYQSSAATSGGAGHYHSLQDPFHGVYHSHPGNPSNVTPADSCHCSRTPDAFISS
T1 sequence (P03069 251-281 partner limits assumed): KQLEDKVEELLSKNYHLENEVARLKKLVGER

Compound | inhibition at 3 µM (recombinant human MALT1) [%] | inhibition at 3 µM (OCI-Ly3 cells) [%]
CO[C@@H](C)c1c(NC(=O)Nc2cnc(OC(F)F)c(C#N)c2)cnn2cc(C)nc12 [Example 5, (S)—N-(5-Cyano-6-(difluoromethoxy)pyridin-3-yl)-N′-(8-(1-methoxyethyl)-2-methylimidazo[1,2-b]pyridazin-7-yl)urea] | 99 | 93
COC(C)(C)c1c(NC(=O)Nc2cnc(-n3nccn3)c(Cl)c2)cnn2cc(C)nc12 [Example 7, N-(5-Chloro-6-(2H-1,2,3-triazol-2-yl)pyridin-3-yl)-N′-(8-(2-methoxypropan-2-yl)-2-methylimidazo[1,2-b]pyridazin-7-yl)urea] | 98 | 95
CC(C)c1c(NC(=O)Nc2cnc(OC(F)F)c(Cl)c2)cnn2cc(Cl)nc12 [Example 8, N-(5-Chloro-6-(difluoromethoxy)pyridin-3-yl)-N′-(2-chloro-8-(propan-2-yl)imidazo[1,2-b]pyridazin-7-yl)urea] | 94 | –
CO[C@@H](C)c1c(NC(=O)Nc2cc(C(F)(F)F)c(-n3nccn3)nc2C)cnn2cc(C)nc12 [Example 22, (S)-N-(8-(1-Methoxyethyl)-2-methylimidazo[1,2-b]pyridazin-7-yl)-N′-(2-methyl-6-(2H-1,2,3-triazol-2-yl)-5-(trifluoromethyl)pyridin-3-yl)urea] | 104 | 102
CO[C@@H](C)c1c(NC(=O)Nc2cnc(-n3nccn3)c(C(F)F)c2)cnn2cc(C)nc12 [Example 31, (S)-N-(5-(Difluoromethyl)-6-(2H-1,2,3-triazol-2-yl)pyridin-3-yl)-N′-(8-(1-methoxyethyl)-2-methylimidazo[1,2-b]pyridazin-7-yl)urea] | 103 | 96
CO[C@@H](C)c1c(NC(=O)Nc2cc(C(F)(F)F)c(-n3nccn3)nc2C)cnc2ccc(Cl)nc12 [Example 66, (S)-N-(6-Chloro-4-(1-methoxyethyl)-1,5-naphthyridin-3-yl)-N′-(2-methyl-6-(2H-1,2,3-triazol-2-yl)-5-(trifluoromethyl)pyridin-3-yl)urea] | 99 | 100
CC(c1c(NC(=O)Nc2cnc(OC(F)F)c(Cl)c2)cnn2cc(Cl)nc12)C(F)(F)F (stereo not drawn) [Example 173, N-(5-Chloro-6-(difluoromethoxy)pyridin-3-yl)-N′-(2-chloro-8-(1,1,1-trifluoropropan-2-yl)imidazo[1,2-b]pyridazin-7-yl)urea] | 99 | 85
COC(C)c1c(NC(=O)Nc2cnc(-n3nccn3)c(C(F)(F)F)c2)cnc2ccnc(C)c12 (stereo not drawn) [Example 261, N-(4-(1-Methoxyethyl)-5-methyl-1,6-naphthyridin-3-yl)-N'-(6-(2H-1,2,3-triazol-2-yl)-5-(trifluoromethyl)pyridin-3-yl)urea] | 98 | 88
COC(C)c1c(NC(=O)Nc2cnc(-n3nccn3)c(C(F)(F)F)c2)cnc2ccc(=O)n(C)c12 (stereo not drawn) [Example 269, N-(4-(1-Methoxyethyl)-5-methyl-6-oxo-5,6-dihydro-1,5-naphthyridin-3-yl)-N'-(6-(2H-1,2,3-triazol-2-yl)-5-(trifluoromethyl)pyridin-3-yl)urea] | 99 | 95
COc1ncc(NC(=O)Nc2cnc3ccn(C)c(=O)c3c2C(C)OC)cc1Cl (stereo not drawn) [Example 270, N-(5-Chloro-6-methoxypyridin-3-yl)-N'-(4-(1-methoxyethyl)-6-methyl-5-oxo-5,6-dihydro-1,6-naphthyridin-3-yl)urea] | 94 | 40

The next lines start with results.

inhibition at 3 µM (recombinant human MALT1) [%] | Compound | inhibition at 3 µM (OCI-Ly3 cells) [%]
108 | CO[C@@H](C)c1c(NC(=O)Nc2cnc(-n3nccn3)c(C(F)(F)F)c2)cnn2cc(C)nc12 [Example 6, (S)—N-(8-(1-Methoxyethyl)-2-methylimidazo[1,2-b]pyridazin-7-yl)-N′-(6-(2H-1,2,3-triazol-2-yl)-5-(trifluoromethyl)pyridin-3-yl)urea] | 99
99 | Cc1cn2ncc(NC(=O)Nc3cnc(-n4nccn4)c(Cl)c3)c(C(C)C)c2n1 [Example 9, N-(5-Chloro-6-(2H-1,2,3-triazol-2-yl)pyridin-3-yl)-N′-(2-methyl-8-(propan-2-yl)imidazo[1,2-b]pyridazin-7-yl)urea] | 99
105 | CO[C@@H](C)c1c(NC(=O)Nc2cnc(OC(F)F)c(Br)c2)cnn2cc(C)nc12 [Example 35, (S)-N-(5-Bromo-6-(difluoromethoxy)pyridin-3-yl)-N′-(8-(1-methoxyethyl)-2-methylimidazo[1,2-b]pyridazin-7-yl)urea] | 95
101 | COCc1cnn(-c2ncc(NC(=O)Nc3cnn4cc(C)nc4c3[C@H](C)OC)cc2Cl)n1 [Example 36, (S)-N-[5-Chloro-6-(4-(methoxymethyl)-2H-1,2,3-triazol-2-yl)pyridin-3-yl)-N′-(8-(1-methoxyethyl)-2-methylimidazo[1,2-b]pyridazin-7-yl)urea] | 96
95 | COC(C)c1c(NC(=O)Nc2cnc(OC(F)F)c(Cl)c2)cnc2ccc(Cl)nc12 (stereo not drawn) [Example 59, N-(5-Chloro-6-(difluoromethoxy)pyridin-3-yl)-N′-(6-chloro-4-(1-methoxyethyl)-1,5-naphthyridin-3-yl)urea] | 98
99 | COC(C)c1c(NC(=O)Nc2cnc(-n3nccn3)c(Cl)c2)cnn2cc(Cl)nc12 (stereo not drawn) [Example 133, N-(2-Chloro-8-(1-methoxyethyl)imidazo[1,2-b]pyridazin-7-yl)-N′-(5-chloro-6-(2H-1,2,3-triazol-2-yl)pyridin-3-yl)urea] | 98
97 | COc1nccc2ncc(NC(=O)Nc3cnc(-n4nccn4)c(C(F)(F)F)c3)c(C(C)OC)c12 (stereo not drawn) [Example 255, N-(5-Methoxy-4-(1-methoxyethyl)-1,6-naphthyridin-3-yl)-N'-(6-(2H-1,2,3-triazol-2-yl)-5-(trifluoromethyl)pyridin-3-yl)urea] | 99
